The text below walks through data of patent publication US8148373B2, “Compounds” (AstraZeneca AB, priority 2008, dated 2012).

Each structure is given as a SMILES string.

Experiment [1] deals with T1, human muscarinic acetylcholine M3 receptor (M3-ACh) (Homo sapiens, UniProt P20309).
T1 construct: expressed in transfected cells; host or cells: CHO-K1 (Chinese Hamster Ovary) cell membranes
The experiment is described as follows: Muscarinic 3 Receptor Binding Assay ([3H]NMS competition, SPA). The note with it: [3H]NMS 0.1 nM, CHO-K1 cell membranes, 16 hours at room temperature; read-out: M3 pIC50 (converted). The method in brief:
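Competition SPA binding of 0.1 nM [3H]NMS (quarter Kd) to membranes from CHO-K1 cells expressing human M3, in 20 mM HEPES pH 7.4, 5 mM MgCl2, 1% DMSO. Incubated 16 h at room temperature; non-specific binding with 1 µM atropine. pIC50 from 50% reduction of specific binding.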

Experiment [2] addresses T2, Adrenergic β2 (H292 cells) (Homo sapiens, UniProt P07550).
T2 construct: endogenous in cells; host or cells: H292 cells
The experiment can be described thus: Adrenergic β2 Mediated cAMP Production, single concentration 1 μM. The class given is cell-based. To be noted: NCI-H292, 1 μM compound, percentage of the maximum response generated by 1E-07M formoterol, read-out: β2 (% effect at 1 μM). In short, it runs like this:
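H292 cells were plated overnight, pre-treated with 300 μM rolipram for 10 min, then exposed to compound at 1 μM final (1% DMSO) for 60 min at room temperature. cAMP in the lysates was measured by AlphaScreen against a standard curve and expressed as % of the maximal response to 1E-07M formoterol.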

Experiment [3] deals with T2, Adrenergic β2 (H292 cells). The experiment can be described thus: Assay for Adrenergic β2 Mediated cAMP Production (concentration response, AlphaScreen cAMP detection). The experiment is classed as cell-based. To be noted: for EC50: cAMP production, 60 minutes at room temperature, 300 μM rolipram, read-out: β2 pEC50 (converted); for β2 Intrinsic activity: fraction relative to the maximum activity determined for formoterol. The method in brief: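 H292 cells plated overnight, pre-treated with rolipram (300 μM final) 10 min, then compound 60 min at room temperature in HBSS/10 mM HEPES pH7.4/5 mM glucose, 1% DMSO. Lysate cAMP read by AlphaScreen against a cAMP standard curve; 4-parameter fit gives pEC50 and intrinsic activity as fraction of formoterol maximum.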
Background: In Alpha technology, singlet oxygen from a donor bead excites a nearby acceptor bead.

Experiment [4] deals with T1, human muscarinic acetylcholine M3 receptor (M3-ACh). The experiment can be described thus: Muscarinic 3 Receptor Binding Assay, % inhibition specific binding at 1 μM. The note with it: 1 μM compound, % inhibition specific [3H]-NMS binding. The method in brief:
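Competition binding of 0.1 nM [3H]NMS to membranes from CHO-K1 cells expressing human M3, SPA format, with compound at 1 μM in 20 mM HEPES pH 7.4, 5 mM MgCl2, 1% DMSO. Incubated 16 h at room temperature; non-specific binding defined by 1 μM atropine; value is % inhibition of specific binding.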

T1 sequence (P20309 whole entry): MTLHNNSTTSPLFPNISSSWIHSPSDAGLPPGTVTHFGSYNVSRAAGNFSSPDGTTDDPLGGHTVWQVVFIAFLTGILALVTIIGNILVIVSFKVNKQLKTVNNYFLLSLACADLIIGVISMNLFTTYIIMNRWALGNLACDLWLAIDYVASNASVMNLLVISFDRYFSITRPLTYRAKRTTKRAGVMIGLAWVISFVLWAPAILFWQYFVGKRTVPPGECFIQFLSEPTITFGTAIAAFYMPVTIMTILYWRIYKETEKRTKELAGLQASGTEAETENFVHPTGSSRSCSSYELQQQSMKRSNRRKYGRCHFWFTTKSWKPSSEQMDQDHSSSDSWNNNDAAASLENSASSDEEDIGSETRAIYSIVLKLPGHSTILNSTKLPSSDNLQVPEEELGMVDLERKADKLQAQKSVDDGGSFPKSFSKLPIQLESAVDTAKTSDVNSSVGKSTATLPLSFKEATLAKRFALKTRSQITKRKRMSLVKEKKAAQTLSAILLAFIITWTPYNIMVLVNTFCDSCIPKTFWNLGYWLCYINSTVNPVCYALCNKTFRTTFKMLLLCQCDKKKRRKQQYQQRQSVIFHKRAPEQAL
T2 sequence (P07550 whole entry): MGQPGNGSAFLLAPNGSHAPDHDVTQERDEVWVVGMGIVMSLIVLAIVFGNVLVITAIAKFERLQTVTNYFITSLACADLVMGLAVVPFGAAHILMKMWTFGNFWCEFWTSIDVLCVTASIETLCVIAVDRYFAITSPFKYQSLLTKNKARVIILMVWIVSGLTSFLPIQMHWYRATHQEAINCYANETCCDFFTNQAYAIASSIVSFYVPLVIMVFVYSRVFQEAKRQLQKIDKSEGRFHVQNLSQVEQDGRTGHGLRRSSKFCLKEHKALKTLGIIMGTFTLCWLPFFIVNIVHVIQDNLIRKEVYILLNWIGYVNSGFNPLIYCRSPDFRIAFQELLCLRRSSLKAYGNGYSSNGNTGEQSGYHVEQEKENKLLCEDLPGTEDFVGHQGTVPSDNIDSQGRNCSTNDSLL

One may read the inhibition as the relative decrease from the control value, in per cent. A lower inhibition goes with little suppression. Regarding `O=C(c1csc(C2CCCC2)n1)N1CCOC2(CCN(CCCCCCCCCNC[C@H](O)c3ccc(O)c4[nH]c(=O)sc34)CC2)C1` [Example 221, (R)-7-(2-(9-(4-(2-cyclopentylthiazole-4-carbonyl)-1-oxa-4,9-diazaspiro[5.5]undecan-9-yl)nonylamino)-1-hydroxyethyl)-4-hydroxybenzo[d]thiazol-2(3H)-one], in experiment [1], the IC50 was 1.26 nM. Moreover, in experiment [2], the activation at 1 µM stood at 93%. In experiment [3], the EC50 was 31.6 nM and the “β2 Intrinsic activity” value was 0.9. Moreover, testing at 1 µM in experiment [4] gave an inhibition of 99%.
The like results for `Cc1nc(CC(=O)N2CCOC3(CCN(CCCCCCCCCNC[C@H](O)c4ccc(O)c5[nH]c(=O)sc45)CC3)C2)cs1` [Example 210, (R)-4-hydroxy-7-(1-hydroxy-2-(9-(4-(2-(2-methylthiazol-4-yl)acetyl)-1-oxa-4,9-diazaspiro[5.5]undecan-9-yl)nonylamino)ethyl)benzo[d]thiazol-2(3H)-one] were, in that order, 7.94 nM, 92%, 15.8 nM, 0.8 and 95%.
The like results for `O=C(c1csc(C2CCC2)n1)N1CCOC2(CCN(CCCCCCCCCNC[C@H](O)c3ccc(O)c4[nH]c(=O)sc34)CC2)C1` [Example 220, (R)-7-(2-(9-(4-(2-cyclobutylthiazole-4-carbonyl)-1-oxa-4,9-diazaspiro[5.5]undecan-9-yl)nonylamino)-1-hydroxyethyl)-4-hydroxybenzo[d]thiazol-2(3H)-one] were, in that order, 0.631 nM, 109%, 25.1 nM, 0.8 and 100%.
With `Cc1nc(C(=O)N2CCOC3(CCN(CCCCCCCCCNC[C@H](O)c4ccc(O)c5[nH]c(=O)sc45)CC3)C2)c(C)s1` [Example 201, (R)-7-(2-(9-(4-(2,5-dimethylthiazole-4-carbonyl)-1-oxa-4,9-diazaspiro[5.5]undecan-9-yl)nonylamino)-1-hydroxyethyl)-4-hydroxybenzo[d]thiazol-2(3H)-one], in experiment [1], the IC50 is 6.31 nM. Further, the activation at 1 µM in experiment [2] came out at 105%. In experiment [3], the EC50 is 31.6 nM and the “β2 Intrinsic activity” value turned out to be 0.9. This compound also returned an inhibition at 1 µM in experiment [4] of 98%.
The corresponding values for `Cc1ccc(C(=O)N2CCOC3(CCN(Cc4cc(F)cc(CCNC[C@H](O)c5ccc(O)c6[nH]c(=O)sc56)c4)CC3)C2)s1` [Example 118, (R)-7-(2-(3-fluoro-5-((4-(5-methylthiophene-2-carbonyl)-1-oxa-4,9-diazaspiro[5.5]undecan-9-yl)methyl)phenethylamino)-1-hydroxyethyl)-4-hydroxybenzo[d]thiazol-2(3H)-one] are 20 nM, 101%, 6.31 nM, 1 and 95%.
The like results for `O=C(c1csc(C2CC2)n1)N1CCOC2(CCN(CCCCCCCCCNC[C@H](O)c3ccc(O)c4[nH]c(=O)sc34)CC2)C1` [Example 218, (R)-7-(2-(9-(4-(2-cyclopropylthiazole-4-carbonyl)-1-oxa-4,9-diazaspiro[5.5]undecan-9-yl)nonylamino)-1-hydroxyethyl)-4-hydroxybenzo[d]thiazol-2(3H)-one] were, in that order, 0.398 nM, 95%, 25.1 nM, 0.9 and 100%.
The like results for `O=C(c1ccc(Cl)s1)N1CCOC2(CCN(Cc3cc(F)cc(CCNC[C@H](O)c4ccc(O)c5[nH]c(=O)sc45)c3)CC2)C1` [Example 124, (R)-7-(2-(3-((4-(5-chlorothiophene-2-carbonyl)-1-oxa-4,9-diazaspiro[5.5]undecan-9-yl)methyl)-5-fluorophenethylamino)-1-hydroxyethyl)-4-hydroxybenzo[d]thiazol-2(3H)-one] were, in that order, 12.6 nM, 100%, 3.98 nM, 0.9 and 97%.
As for `Cc1csc(C(=O)N2CCOC3(CCN(CCCCCCCCCNC[C@H](O)c4ccc(O)c5[nH]c(=O)sc45)CC3)C2)c1` [Example 213, (R)-4-hydroxy-7-(1-hydroxy-2-(9-(4-(4-methylthiophene-2-carbonyl)-1-oxa-4,9-diazaspiro[5.5]undecan-9-yl)nonylamino)ethyl)benzo[d]thiazol-2(3H)-one], the IC50 in experiment [1] was 0.794 nM. Further, the activation at 1 µM in experiment [2] is 87%. Further, in experiment [3], the EC50 was 12.6 nM and the “β2 Intrinsic activity” value is 0.8. Moreover, in experiment [4], the inhibition at 1 µM is 99%.
The like results for `O=C(c1ccc2c(c1)CCO2)N1CCOC2(CCN(Cc3cc(F)cc(CCNC[C@H](O)c4ccc(O)c5[nH]c(=O)sc45)c3)CC2)C1` [Example 149, (R)-7-(2-(3-((4-(2,3-dihydrobenzofuran-5-carbonyl)-1-oxa-4,9-diazaspiro[5.5]undecan-9-yl)methyl)-5-fluorophenethylamino)-1-hydroxyethyl)-4-hydroxybenzo[d]thiazol-2(3H)-one] were, in that order, 25.1 nM, 113%, 7.94 nM, 0.9 and 92%.
Regarding `Cc1ccc(C(=O)N2CCOC3(CCN(CCCCCCCCCNC[C@H](O)c4ccc(O)c5[nH]c(=O)sc45)CC3)C2)o1` [Example 198, (R)-4-hydroxy-7-(1-hydroxy-2-(9-(4-(5-methylfuran-2-carbonyl)-1-oxa-4,9-diazaspiro[5.5]undecan-9-yl)nonylamino)ethyl)benzo[d]thiazol-2(3H)-one], in experiment [1], the IC50 was 3.16 nM. Also, the activation at 1 µM in experiment [2] was 82%. In addition, in experiment [3], the EC50 was 12.6 nM and the “β2 Intrinsic activity” value amounted to 0.8. In addition, in experiment [4], the inhibition at 1 µM was 99%.
The like results for `O=C(c1ccc2occc2c1)N1CCOC2(CCN(CCCCCCCCCNC[C@H](O)c3ccc(O)c4[nH]c(=O)sc34)CC2)C1` [Example 209, (R)-7-(2-(9-(4-(benzofuran-5-carbonyl)-1-oxa-4,9-diazaspiro[5.5]undecan-9-yl)nonylamino)-1-hydroxyethyl)-4-hydroxybenzo[d]thiazol-2(3H)-one] were, in that order, 2 nM, 84%, 25.1 nM, 0.9 and 99%.
Regarding `CC(C)(C)CC(=O)N1CCOC2(CCN(Cc3cc(F)cc(CCNC[C@H](O)c4ccc(O)c5[nH]c(=O)sc45)c3)CC2)C1` [Example 130, (R)-7-(2-(3-((4-(3,3-dimethylbutanoyl)-1-oxa-4,9-diazaspiro[5.5]undecan-9-yl)methyl)-5-fluorophenethylamino)-1-hydroxyethyl)-4-hydroxybenzo[d]thiazol-2(3H)-one], in experiment [1], the IC50 is 79.4 nM. Also, the activation at 1 µM in experiment [2] turned out to be 109%. In experiment [3], the EC50 was 12.6 nM and the “β2 Intrinsic activity” value is 1. This compound also had an inhibition at 1 µM in experiment [4] of 90%.
Regarding `CCCc1nc(C(=O)N2CCOC3(CCN(CCCCCCCCCNC[C@H](O)c4ccc(O)c5[nH]c(=O)sc45)CC3)C2)cs1` [Example 219, (R)-4-hydroxy-7-(1-hydroxy-2-(9-(4-(2-propylthiazole-4-carbonyl)-1-oxa-4,9-diazaspiro[5.5]undecan-9-yl)nonylamino)ethyl)benzo[d]thiazol-2(3H)-one], the IC50 in experiment [1] is 1 nM. In addition, in experiment [2], the activation at 1 µM amounted to 92%. In experiment [3], the EC50 is 50.1 nM and the “β2 Intrinsic activity” value worked out at 0.8. Besides, the inhibition at 1 µM in experiment [4] is 99%.
Regarding `O=C(c1cc2ccccc2s1)N1CCOC2(CCN(CCOc3ccc(CNC[C@H](O)c4ccc(O)c5[nH]c(=O)sc45)cc3)CC2)C1` [Example 235, (R)-7-(2-(4-(2-(4-(benzo[b]thiophene-2-carbonyl)-1-oxa-4,9-diazaspiro[5.5]undecan-9-yl)ethoxy)benzylamino)-1-hydroxyethyl)-4-hydroxy-benzo[d]thiazol-2(3H)-one], in experiment [2], the activation at 1 µM worked out at 97%. Moreover, in experiment [4], at 1 µM the inhibition was 29%.
The like results for `Cc1ccoc1C(=O)N1CCOC2(CCN(CCOc3ccc(CNC[C@H](O)c4ccc(O)c5[nH]c(=O)sc45)cc3)CC2)C1` [Example 234, (R)-4-hydroxy-7-(1-hydroxy-2-(4-(2-(4-(3-methylfuran-2-carbonyl)-1-oxa-4,9-diazaspiro[5.5]undecan-9-yl)ethoxy)benzylamino)ethyl) benzo[d]thiazol-2(3H)-one] were, in that order, 78% and 80%.
